Values after ≈ are worked out from the molar mass of the structure shown.
Assays:
Cytochrome P450 2C19 = Cytochrome P450 2C19 (Homo sapiens, UniProt P33261); test: Inhibition of CYP2C19 (unknown origin); format: ADME
[1] = AUC (0 to infinity) in rat at 5 mg/kg, po; format: ADME, organism-based; design: dose 5 mg/kg, time infinity, route oral; details: in vivo
Cytochrome P450 1A2 = target: T1, Cytochrome P450 1A2 (Homo sapiens, UniProt P05177); test: Inhibition of CYP1A2 (unknown origin); format: ADME
T1 sequence (P05177 whole entry): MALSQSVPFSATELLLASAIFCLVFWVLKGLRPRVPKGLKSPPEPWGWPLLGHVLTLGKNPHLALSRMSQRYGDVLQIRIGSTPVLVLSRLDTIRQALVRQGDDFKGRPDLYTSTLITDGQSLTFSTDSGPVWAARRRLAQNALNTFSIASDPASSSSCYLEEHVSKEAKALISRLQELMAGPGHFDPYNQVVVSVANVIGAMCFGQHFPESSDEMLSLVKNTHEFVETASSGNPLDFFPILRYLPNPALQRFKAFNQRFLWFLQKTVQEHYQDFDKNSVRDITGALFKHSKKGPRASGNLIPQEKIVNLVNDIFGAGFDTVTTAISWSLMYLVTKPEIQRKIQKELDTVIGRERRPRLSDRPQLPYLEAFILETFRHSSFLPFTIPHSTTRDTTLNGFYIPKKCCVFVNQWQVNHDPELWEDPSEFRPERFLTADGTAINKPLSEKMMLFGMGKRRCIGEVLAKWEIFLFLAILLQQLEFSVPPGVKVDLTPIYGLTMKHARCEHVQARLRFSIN

Cytochrome P450 2C9 = Cytochrome P450 2C9 (Homo sapiens, UniProt P11712); test: Inhibition of CYP2C9 (unknown origin); format: ADME
Cytochrome P450 2C9, sequence (P11712 whole entry): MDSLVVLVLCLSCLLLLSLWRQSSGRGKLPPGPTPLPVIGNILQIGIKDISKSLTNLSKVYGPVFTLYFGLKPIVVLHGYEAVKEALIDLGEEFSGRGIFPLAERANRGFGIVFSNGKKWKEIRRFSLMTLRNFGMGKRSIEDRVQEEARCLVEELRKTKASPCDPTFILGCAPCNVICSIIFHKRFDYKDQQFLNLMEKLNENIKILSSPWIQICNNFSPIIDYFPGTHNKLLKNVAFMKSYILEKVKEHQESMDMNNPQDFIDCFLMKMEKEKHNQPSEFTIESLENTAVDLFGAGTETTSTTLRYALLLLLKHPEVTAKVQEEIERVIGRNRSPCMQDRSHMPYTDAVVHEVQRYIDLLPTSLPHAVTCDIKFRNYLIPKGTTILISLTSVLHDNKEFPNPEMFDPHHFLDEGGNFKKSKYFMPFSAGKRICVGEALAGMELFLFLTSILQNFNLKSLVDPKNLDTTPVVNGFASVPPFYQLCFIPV

[2] = Half life in human liver microsomes; format: ADME, microsome
[3] = Half life in rat liver microsomes; format: ADME, microsome
[4] = Oral bioavailability in rat at 5 mg/kg; format: ADME, organism-based; details: in vivo
[5] = Unbound plasma concentration in rat; format: ADME, organism-based
[6] = Thermodynamic aqueous solubility of the compound in pH 2.2; format: physicochemical; details: buffer, read-out: Therm_solubility
[7] = Unbound plasma concentration in dog; format: ADME, organism-based, Canis lupus familiaris
[8] = Clearance in rat at 1 mg/kg, iv; format: ADME, organism-based; details: in vivo
[9] = Half life in rat at 1 mg/kg, iv; format: ADME, organism-based; details: in vivo
CaM kinase II alpha/beta = CaM kinase II alpha/beta (Rattus norvegicus, UniProt P08413+P11275); test: Inhibition of CaMK2alpha/beta in neonatal rat cortical neurons assessed as phospholamban phosphorylation after 4 hrs by Hoechst 33342 fluorescence-based assay; format: protein-complex assay
CaM kinase II alpha/beta, sequence (P11275 whole entry): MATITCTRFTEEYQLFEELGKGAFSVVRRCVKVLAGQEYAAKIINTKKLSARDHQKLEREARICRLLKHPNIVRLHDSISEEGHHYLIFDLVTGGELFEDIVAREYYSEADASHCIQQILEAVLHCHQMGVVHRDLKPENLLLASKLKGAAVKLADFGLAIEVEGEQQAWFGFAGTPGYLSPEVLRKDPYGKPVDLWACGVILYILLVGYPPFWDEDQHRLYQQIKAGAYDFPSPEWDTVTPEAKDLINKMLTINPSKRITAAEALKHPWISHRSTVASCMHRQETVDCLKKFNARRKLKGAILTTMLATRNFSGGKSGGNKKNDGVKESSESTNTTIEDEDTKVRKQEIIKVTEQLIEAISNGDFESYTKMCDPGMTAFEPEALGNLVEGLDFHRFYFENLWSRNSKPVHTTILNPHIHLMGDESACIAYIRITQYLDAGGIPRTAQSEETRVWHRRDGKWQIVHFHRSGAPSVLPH
CaM kinase II alpha/beta, sequence (P08413 whole entry): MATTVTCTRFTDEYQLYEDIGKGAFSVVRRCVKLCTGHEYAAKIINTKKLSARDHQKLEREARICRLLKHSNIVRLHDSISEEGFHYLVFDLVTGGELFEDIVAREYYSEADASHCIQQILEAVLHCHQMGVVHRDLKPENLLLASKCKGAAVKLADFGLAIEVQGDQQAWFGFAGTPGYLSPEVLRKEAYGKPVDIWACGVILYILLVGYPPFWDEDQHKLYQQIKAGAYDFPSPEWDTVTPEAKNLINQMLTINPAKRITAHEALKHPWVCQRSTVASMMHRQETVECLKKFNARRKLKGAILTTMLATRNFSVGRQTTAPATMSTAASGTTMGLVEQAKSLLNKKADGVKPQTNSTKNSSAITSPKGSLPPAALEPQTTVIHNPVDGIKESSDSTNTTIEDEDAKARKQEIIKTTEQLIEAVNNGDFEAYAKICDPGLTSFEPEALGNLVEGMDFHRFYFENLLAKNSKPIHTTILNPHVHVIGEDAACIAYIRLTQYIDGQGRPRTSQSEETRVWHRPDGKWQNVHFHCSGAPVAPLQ

[10] = Volume of distribution at steady state in rat at 1 mg/kg, iv; format: ADME, organism-based; details: in vivo, read-out: Vdss
[11] = target: CaM kinase II delta/gamma (Rattus norvegicus, UniProt P11730+P15791); test: Inhibition of CaMK2gamma/delta in neonatal rat ventricular myocytes assessed as phospholamban phosphorylation after 4 hrs by Hoechst 33342 fluorescence based assay; format: cell-based
CaM kinase II delta/gamma, sequence (P15791 whole entry): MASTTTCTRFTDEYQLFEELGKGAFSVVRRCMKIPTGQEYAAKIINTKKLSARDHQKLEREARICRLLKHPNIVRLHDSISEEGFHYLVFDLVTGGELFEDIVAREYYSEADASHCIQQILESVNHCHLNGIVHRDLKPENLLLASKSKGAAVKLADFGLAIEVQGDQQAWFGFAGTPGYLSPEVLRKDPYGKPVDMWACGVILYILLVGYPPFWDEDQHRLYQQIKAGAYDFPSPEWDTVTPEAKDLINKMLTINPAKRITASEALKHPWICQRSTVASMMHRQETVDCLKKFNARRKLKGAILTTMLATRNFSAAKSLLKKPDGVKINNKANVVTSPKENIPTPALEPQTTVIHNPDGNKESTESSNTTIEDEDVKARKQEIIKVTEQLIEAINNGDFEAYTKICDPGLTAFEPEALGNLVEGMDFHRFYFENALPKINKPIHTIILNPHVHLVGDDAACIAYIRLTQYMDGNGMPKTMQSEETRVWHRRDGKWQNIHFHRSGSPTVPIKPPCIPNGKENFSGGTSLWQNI
CaM kinase II delta/gamma, sequence (P11730 whole entry): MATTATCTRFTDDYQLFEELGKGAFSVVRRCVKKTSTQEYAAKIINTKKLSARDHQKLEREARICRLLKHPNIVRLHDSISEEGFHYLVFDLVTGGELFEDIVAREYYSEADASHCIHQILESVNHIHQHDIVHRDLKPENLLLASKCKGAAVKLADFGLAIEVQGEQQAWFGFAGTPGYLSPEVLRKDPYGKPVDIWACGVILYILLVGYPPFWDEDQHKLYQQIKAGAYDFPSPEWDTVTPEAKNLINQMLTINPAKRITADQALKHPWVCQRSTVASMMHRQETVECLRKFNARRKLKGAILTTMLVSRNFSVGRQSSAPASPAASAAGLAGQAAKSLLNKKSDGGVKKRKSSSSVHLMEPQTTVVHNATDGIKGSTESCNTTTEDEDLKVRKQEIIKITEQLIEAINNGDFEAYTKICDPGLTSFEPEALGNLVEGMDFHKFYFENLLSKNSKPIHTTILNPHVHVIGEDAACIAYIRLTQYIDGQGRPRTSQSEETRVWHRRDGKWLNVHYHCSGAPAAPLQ

Cytochrome P450 3A4 = Cytochrome P450 3A4 (Homo sapiens, UniProt P08684); test: Inhibition of CYP3A4 (unknown origin); format: ADME
Cytochrome P450 3A4, sequence (P08684 whole entry): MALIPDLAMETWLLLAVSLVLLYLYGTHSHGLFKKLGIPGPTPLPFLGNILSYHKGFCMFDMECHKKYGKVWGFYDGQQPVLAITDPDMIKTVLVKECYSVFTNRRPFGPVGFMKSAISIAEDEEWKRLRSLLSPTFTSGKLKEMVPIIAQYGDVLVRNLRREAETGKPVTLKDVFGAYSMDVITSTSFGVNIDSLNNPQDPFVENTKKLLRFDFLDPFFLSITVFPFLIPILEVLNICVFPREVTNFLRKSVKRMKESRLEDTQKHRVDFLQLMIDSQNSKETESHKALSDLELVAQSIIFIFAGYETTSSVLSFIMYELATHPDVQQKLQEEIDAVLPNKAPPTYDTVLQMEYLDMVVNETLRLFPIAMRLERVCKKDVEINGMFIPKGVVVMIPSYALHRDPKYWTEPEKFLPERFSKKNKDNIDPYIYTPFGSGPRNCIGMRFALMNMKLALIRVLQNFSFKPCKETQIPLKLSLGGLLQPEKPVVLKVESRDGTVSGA

Cytochrome P450 2D6 = Cytochrome P450 2D6 (Homo sapiens, UniProt P10635); test: Inhibition of CYP2D6 (unknown origin); format: ADME
Cytochrome P450 2D6, sequence (P10635 whole entry): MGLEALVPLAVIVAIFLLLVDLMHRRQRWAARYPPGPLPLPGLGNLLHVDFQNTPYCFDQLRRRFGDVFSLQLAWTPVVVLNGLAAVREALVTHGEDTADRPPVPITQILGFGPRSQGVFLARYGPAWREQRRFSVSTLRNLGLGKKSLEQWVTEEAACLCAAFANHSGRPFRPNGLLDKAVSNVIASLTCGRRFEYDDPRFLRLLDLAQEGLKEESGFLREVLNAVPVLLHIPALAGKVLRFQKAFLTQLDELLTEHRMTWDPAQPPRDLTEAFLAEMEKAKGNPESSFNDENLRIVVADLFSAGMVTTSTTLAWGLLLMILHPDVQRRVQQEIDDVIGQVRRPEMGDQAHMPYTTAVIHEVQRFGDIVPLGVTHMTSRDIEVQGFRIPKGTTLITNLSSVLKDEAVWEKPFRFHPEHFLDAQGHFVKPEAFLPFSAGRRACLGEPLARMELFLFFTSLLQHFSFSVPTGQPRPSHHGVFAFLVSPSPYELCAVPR

[12] = Unbound plasma concentration in human; format: ADME, organism-based
[13] = Thermodynamic aqueous solubility of the compound in pH 7.2; format: physicochemical; details: buffer, read-out: Therm_solubility
[14] = Half life in dog liver microsomes; format: ADME, Canis lupus familiaris, microsome
[15] = target: Voltage-gated inwardly rectifying potassium channel KCNH2 (Homo sapiens, UniProt Q12809); test: Inhibition of human ERG
Voltage-gated inwardly rectifying potassium channel KCNH2, sequence (Q12809 whole entry): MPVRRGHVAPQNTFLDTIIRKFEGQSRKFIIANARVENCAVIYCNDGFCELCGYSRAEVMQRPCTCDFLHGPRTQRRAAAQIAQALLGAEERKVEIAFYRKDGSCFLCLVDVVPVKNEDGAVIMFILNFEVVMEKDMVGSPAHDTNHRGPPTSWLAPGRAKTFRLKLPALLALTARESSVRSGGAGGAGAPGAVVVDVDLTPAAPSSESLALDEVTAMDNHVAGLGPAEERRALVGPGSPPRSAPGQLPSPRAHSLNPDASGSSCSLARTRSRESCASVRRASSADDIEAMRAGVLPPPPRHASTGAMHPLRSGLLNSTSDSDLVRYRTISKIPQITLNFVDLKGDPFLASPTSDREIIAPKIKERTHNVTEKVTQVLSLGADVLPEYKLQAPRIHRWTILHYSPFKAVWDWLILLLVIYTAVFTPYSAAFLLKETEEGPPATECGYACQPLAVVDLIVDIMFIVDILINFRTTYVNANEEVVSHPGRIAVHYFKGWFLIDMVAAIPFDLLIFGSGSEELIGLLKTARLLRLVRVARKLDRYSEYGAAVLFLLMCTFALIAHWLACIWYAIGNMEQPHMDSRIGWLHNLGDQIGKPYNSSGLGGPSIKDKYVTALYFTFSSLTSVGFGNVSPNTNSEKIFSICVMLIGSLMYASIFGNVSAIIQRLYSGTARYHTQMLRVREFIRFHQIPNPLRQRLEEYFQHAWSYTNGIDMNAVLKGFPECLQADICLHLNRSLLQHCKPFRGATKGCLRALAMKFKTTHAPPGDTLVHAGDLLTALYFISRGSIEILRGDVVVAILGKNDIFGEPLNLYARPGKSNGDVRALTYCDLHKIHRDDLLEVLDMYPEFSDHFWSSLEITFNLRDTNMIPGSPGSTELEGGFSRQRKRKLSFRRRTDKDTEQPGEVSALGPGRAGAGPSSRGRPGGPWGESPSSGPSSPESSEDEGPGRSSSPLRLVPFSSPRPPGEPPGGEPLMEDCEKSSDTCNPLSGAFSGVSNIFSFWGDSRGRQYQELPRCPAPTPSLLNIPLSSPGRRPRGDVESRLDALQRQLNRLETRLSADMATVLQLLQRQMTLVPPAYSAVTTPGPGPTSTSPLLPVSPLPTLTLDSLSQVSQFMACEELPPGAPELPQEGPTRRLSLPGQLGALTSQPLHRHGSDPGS

| SMILES | half-life [2] [min] | half-life [3] [min] | fraction unbound [5] | solubility thermodynamic [6] [µg/mL] | fraction unbound [7] | clearance [8] [mL/min/kg] | half-life [9] [min] | EC50 (CaM kinase II alpha/beta) [nM] | Vd [10] [L/kg] | EC50 [11] [nM] | fraction unbound [12] | solubility thermodynamic [13] [µg/mL] | half-life [14] [min] | IC50 [15] [nM] | other results |
| --- | --- | --- | --- | --- | --- | --- | --- | --- | --- | --- | --- | --- | --- | --- | --- |
| CCN(CC)[C@@H](C)CNC(=O)c1cc(-c2cnn3ccc(-c4cccs4)nc23)nc(N2CC(OC)C2)c1 | 62 | 61 | 0.151 | > 20000 | 0.159 | 25.5 | 258 | 120 | 7.34 | 7.4 | 0.071 | 200 (≈ 0.385 mM) | 43 | – | IC50 (Cytochrome P450 2C19): > 25000 nM; AUC(0-inf) [1]: 3 µM·h; IC50 (Cytochrome P450 1A2): > 25000 nM; IC50 (Cytochrome P450 2C9): > 25000 nM; bioavailability [4]: 73%; IC50 (Cytochrome P450 3A4): > 25000 nM; IC50 (Cytochrome P450 2D6): > 25000 nM |
| CCN(CC)[C@@H](C)CNC(=O)c1ccnc(-c2cnn3ccc(-c4cccs4)nc23)c1 | – | – | – | – | – | – | – | – | – | – | – | – | – | 718 | – |
| CCN(CC)CCNC(=O)c1ccnc(-c2cnn3ccc(-c4cccs4)nc23)c1 | – | – | – | – | – | – | – | – | – | – | – | – | – | 1170 | – |
| CCc1cc(C(=O)NC[C@H](C)N(CC)CC)cc(-c2cnn3ccc(-c4cccs4)nc23)n1 | – | – | – | – | – | – | – | – | – | – | – | – | – | 3280 | – |
| CCN(CC)[C@@H](C)CNC(=O)c1cc(-c2cnn3ccc(-c4cccs4)nc23)nc(N2CC(O)C2)c1 | 58 | 48 | 0.363 | 15000 (≈ 29.7 mM) | 0.291 | 80.8 | 353 | 274 | 22.1 | 6.2 | 0.177 | 8400 (≈ 16.6 mM) | 27 | > 30000 | – |
